Results on one compound are retold here after ChEMBL document CHEMBL4330144, “A mitochondria-targeted organic arsenical accelerates mitochondrial metabolic disorder and function injury” (Bioorg Med Chem, 2019).

Calls of active or inactive are those of the source. No cut-off for these calls is given here.

One assay is filed under the species Rattus norvegicus. Description: Induction of mitochondrial swelling in isolated Wistar rat mitochondria at 30 uM in presence of ruthenium red. The format is functional.
In assay [1] the test system is NB-4. Description: Induction of mitochondrial membrane potential loss in human NB4 cells assessed as decrease in intracellular ATP level at 0.6 to 1.2 uM after 24 hrs. Type of assay: functional, cell-based.
For assay [2], the system named is NB-4. Briefly: Induction of ROS generation in human NB4 cells at 0.6 uM after 1 to 6 hrs by DCFH-DA staining based flow cytometry. The format is functional, cell-based. (A flow cytometer gives signals particle by particle.)

As to `O=C(CC[P+](c1ccccc1)(c1ccccc1)c1ccccc1)Nc1ccc([As]2SCCCS2)cc1.[Cl-]`, the result in the assay filed under Rattus norvegicus and in the assay with NB-4 [2] was inactive. Besides, the result in the assay with NB-4 [1] was Active.
